The results in this text go back to ChEMBL document CHEMBL4196043, “Discovery and optimization of 2-thio-5-amino substituted benzoquinones as potent anticancer agents” (Eur J Med Chem, 2018).

For series [1], the system named is PC-3. Description: Growth inhibition of human PC3 cells at 10 uM after 48 hrs by MTS assay. The format is functional. To be noted: PC-3, 48 h, read-out: GI. In general terms: Tetrazolium assays rely on reduction of a dye to a coloured formazan, in cell work by metabolically active cells.
Series [2] relates to PC-3. Put plainly: Antiproliferative activity against human PC3 cells after 48 hrs by MTS assay. The format is functional, cell-based. As to conditions: PC-3, 48 h.
Series [3] in a line: Aqueous solubility of the compound in water by HPLC-UV spectrophotometric analysis. The format is physicochemical.
In the next series the test system is BGC-823. Description: Growth inhibition of human BGC823 cells at 10 uM. As to conditions: read-out: GI. It counts as functional.
The test system of series [4] is A549. Put plainly: Growth inhibition of human A549 cells at 10 uM after 48 hrs by MTS assay. It counts as functional. As to conditions: A549, 48 h, read-out: GI.
For another series, the system named is HCT-116. Put plainly: Antiproliferative activity against human HCT116 cells after 48 hrs by MTS assay. It counts as functional, cell-based. To be noted: HCT-116, 48 h.
For a further series, the system named is A-375. Put plainly: Antiproliferative activity against human A375 cells after 48 hrs by MTS assay. To be noted: A-375, 48 h. It counts as functional, cell-based.
The nature of series [5]: Selectivity index, ratio of IC50 for human HELF to IC50 for human PC3 cells. It counts as toxicity. To be noted: HELF cells and PC3 cells, read-out: Ratio IC50.
Series [6] relates to A549. Description: Antiproliferative activity against human A549 cells after 48 hrs by MTS assay. It counts as functional, cell-based. To be noted: A549, 48 h.
A further series concerns MCF7. Put plainly: Antiproliferative activity against human MCF7 cells after 48 hrs by MTS assay. It counts as functional, cell-based. As to conditions: MCF7, 48 h.
A short description of series [7]: Antiproliferative activity against human HELF after 48 hrs by MTS assay.
In the next series the test system is SW480. Description: Antiproliferative activity against human SW480 cells after 48 hrs by MTS assay. To be noted: SW480, 48 h. It counts as functional, cell-based.

Bounds are passed on as bounds.

`CC(O)CNC1=CC(=O)C(SC/C=C/c2ccccc2)=CC1=O` (stereo not drawn): in the series with PC-3 [1], the inhibition of growth at 10 µM turned out to be 3.75%. In the series with PC-3 [2], `C=CCSC1=CC(=O)C(NCCCN)=CC1=O` had an IC50 of 1570 nM. Regarding `COc1ccccc1/C=C/CSC1=CC(=O)C(NCC(C)O)=CC1=O` (stereo not drawn), the inhibition of growth at 10 µM with PC-3 [1] is 5.9%. `C=CCSC1=CC(=O)C(N[C@H]2CC[C@H](O)CC2)=CC1=O`: the solubility in series [3] was below 1 mg/mL. The molecule also yielded a 50% inhibitory concentration (IC50) in the series on PC-3 [2] of 330 nM.

With `C=CCSC1=CC(=O)C(NCCS(C)(=O)=O)=CC1=O`, the IC50 in the series on PC-3 [2] turned out to be 1540 nM. In the series with PC-3 [2], `C=CCSC1=CC(=O)C(NCCN2CCNC2=O)=CC1=O` came in with an IC50 of 2190 nM.

For `C=C(CSC1=CC(=O)C(NCC(C)O)=CC1=O)c1ccccc1` (stereo not drawn), the inhibition of growth at 10 µM in the series with PC-3 [1] amounted to 11.8%. With `C=CCSC1=CC(=O)C(NCCCl)=CC1=O`, the IC50 with PC-3 [2] turned out to be 602 nM. In series [3], `C=CCSC1=CC(=O)C(NCCCN(C)C)=CC1=O.Cl` gave a solubility above 200 mg/mL. Moreover, the IC50 in the series with PC-3 [2] was 910 nM.

As to `C/C=C/CSC1=CC(=O)C(NCC(C)O)=CC1=O` (stereo not drawn), the inhibition of growth at 10 µM in the series on PC-3 [1] is 67.6%. In turn, `C=CCSC1=CC(=O)C(N[C@H]2CC[C@@H](N)CC2)=CC1=O` displayed an IC50 in the series on PC-3 [2] of 483 nM. The same measure, in the same setting: the same measure for `C=CCSC1=CC(=O)C(NCCC(=O)OC)=CC1=O`: 4670 nM.

The molecule `C=CCSC1=CC(=O)C(NCCCNCCO)=CC1=O` returned an IC50 with PC-3 [2] of 2170 nM. `CC(O)CNC1=CC(=O)C(SC2C=CCCC2)=CC1=O` (stereo not drawn): in the series on PC-3 [1], the inhibition of growth at 10 µM was found to be 46.9%. Turning to `C=CCSC1=CC(=O)C(NCCCO)=CC1=O`, the IC50 with PC-3 [2] was 678 nM. With `C=CCSC1=CC(=O)C(NCC(O)CO)=CC1=O` (stereo not drawn), the midpoint of inhibition in the series on PC-3 [2], the IC50, lay at 3980 nM.

`C=C(C)CSC1=CC(=O)C(NCC(C)O)=CC1=O` (stereo not drawn): the inhibition of growth at 10 µM in the series on PC-3 [1] is 61.9%. In the case of `C=CCSC1=CC(=O)C(NCC(C)O)=CC1=O` (stereo not drawn), the values for the inhibition of growth at 10 µM in the series with BGC-823, in the series with PC-3 [1] and with A549 [4] were 88.5%, 88% and 85.5%, respectively. The same molecule returned an IC50 in the series with PC-3 [2] of 5000 nM. Regarding `C=C(Cl)CSC1=CC(=O)C(NCC(C)O)=CC1=O` (stereo not drawn), the inhibition of growth at 10 µM in the series on PC-3 [1] worked out at 20%. In series [3], `C=CCSC1=CC(=O)C(NCCCNC)=CC1=O.Cl` had a solubility above 200 mg/mL. In the series with PC-3 [2], this molecule came in with an IC50 of 314 nM. In turn, `C=CCSC1=CC(=O)C(NCCCN2CCOCC2)=CC1=O` came in with an IC50 in the series with PC-3 [2] of 1460 nM. `CC(O)CNC1=CC(=O)C(SC/C=C/c2ccc(F)cc2)=CC1=O` (stereo not drawn): the inhibition of growth at 10 µM with PC-3 [1] came out at 12.2%. Turning to `C=CCSC1=CC(=O)C(NCCP(=O)(OCC)OCC)=CC1=O`, in the series on PC-3 [2], half-maximal inhibition (IC50) was put at 701 nM. For the molecule `C=CCSC1=CC(=O)C(N[C@H]2CC[C@H](N)CC2)=CC1=O.Cl`, the half-maximal inhibitory concentration (IC50) in the series with HCT-116 stood at 408 nM; with A-375 it was 220 nM; with A549 [6], 376 nM; with PC-3 [2] it was 224 nM; in the series with MCF7, 259 nM; in series [7], 10500 nM. Also, the half-inhibitory concentration (IC50) in the series on SW480 was 1220 nM. For the same molecule, in series [3], the solubility is 23.2 mg/mL. Further, the selectivity ratio in series [5] came out at 47. In the case of `CC(O)CNC1=CC(=O)C(SC/C=C/c2cccnc2)=CC1=O` (stereo not drawn), the inhibition of growth at 10 µM in the series with PC-3 [1] stood at 9.45%. The molecule `C=CCSC1=CC(=O)C(NCCCCO)=CC1=O` showed an IC50 with PC-3 [2] of 461 nM.

`C=CCSC1=CC(=O)C(NCCOCCO)=CC1=O` had an IC50 with PC-3 [2] of 394 nM. Take `C=CCSC1=CC(=O)C(NCCNC(C)=O)=CC1=O`: inhibition in the series with PC-3 [2] was half-maximal at 2770 nM (IC50). Same read-out and setting: the same measure for `C=CCSC1=CC(=O)C(NCCO)=CC1=O`: 720 nM.

One may read the IC50 as the concentration that inhibits the measured activity by half. As a reminder, the solubility is the dissolved amount per volume that the medium holds.
